The values that follow come from patent publication US4558122A, “Stable s-adenosylmethionine derivatives, the process for their preparation, and therapeutic compositions which contain them as active principle” (Bioresearch S.P.A., priority 1981, dated 1985).

Where two headings read alike, the source gives them in different places.

Data set [1] relates to portions of intestine turned inside out. Put plainly: absorption by portions of intestine turned inside out. The class given is in vitro ADME. As to the method:
In the 2nd test, portions of intestine turned inside out were used, incubated at 37° C. in accordance with Krebs Ringer against an external product concentration of 10^-4 M. The products were all salified with H2 SO4 to give salts in which m was 0 or 1 and n was 3.

Another data set can be described thus: physchem. The class given is physicochemical. The conditions noted are these: water.
The nature of data set [2]: absorption "in situ" (intestinal sacs). The class given is in vivo, rat. The conditions noted are these: rat, in situ intestinal sacs, 2 mg in 1 ml physiological solution, rats, H2 SO4 salts, m 0 or 1, n 3, read-out: PRODUCT ABSORPTION in sacs. As to the method: (§1) In the 1st test, known as "in situ" (intestinal sacs), 2 mg of each product to be tested in 1 ml of physiological solution were placed in intestinal sacs provided in rats under ether anesthesia. The rats were killed after 2 hours, and the residual content of the sac (wall+content) was analysed. In the 2nd test, portions of intestine turned inside out were used, incubated at 37° C. in accordance with Krebs Ringer against an external product concentration of 10^-4 M. The products were all salified with H2 SO4 to give salts in which m was 0 or 1 and n was 3.

A short description of data set [3]: stability in the dry state at 45° C. The class given is physicochemical.
In a further data set the test system is intestinal sacs. Put plainly: absorption "in situ" (intestinal sacs). As to conditions: 2 mg in 1 ml physiological solution, rats, 2 hours; H2 SO4 salts, m 0 or 1, n 3. The class given is in vivo, rat. As to the method:
as §1

The mark [4] stands for this setting: 37° C., Krebs Ringer, external concentration 10^-4 M, H2 SO4 salts, m 0 or 1, n 3.
Setting [5] is: 45° C., 60 days, read-out: Degradation at 45° C. after 60 days.
The mark [6] stands for this setting: 45° C., 120 days, read-out: Degradation at 45° C. after 120 days.
Where [7] appears, read: 45° C., 180 days, read-out: Degradation at 45° C. after 180 days.
The mark [8] stands for this setting: 45° C., 240 days, read-out: Degradation at 45° C. after 240 days.
[9] abbreviates: 45° C., 360 days, read-out: Degradation at 45° C. after 360 days.

`CCOC(=O)[C@@H](N)CC[S+](C)C[C@H]1O[C@@H](n2cnc3c(N)ncnc32)[C@H](O)[C@@H]1O` (some centres unmarked) [C2 H5, SAM ethyl ester]: in data set [1] (setting [4]), the “PRODUCT ABSORPTION intestine inside out” value is 0.061 nmoles/h/mg tissue. In the data set “physchem” (pH 2), the degraded at 0.25 h was found to be 2%, the degraded at 0.5 h came to 4%, the degraded at 1 h turned out to be 8% and the degraded at 4 h amounted to 35%. Moreover, in the data set “physchem” (pH 3), the degraded at 0.25 h came out at 3%, the degraded at 0.5 h worked out at 6%, the degraded at 1 h stood at 13% and the degraded at 4 h stood at 55%. In the data set “physchem” (pH 4), this molecule gave a degraded at 0.25 h of 5%, a degraded at 0.5 h of 9%, a degraded at 1 h of 19% and a degraded at 4 h of 80%. In addition, in data set [2], the Fa at 2 h amounted to 59%.
Consider `CCCOC(=O)[C@@H](N)CC[S+](C)C[C@H]1O[C@@H](n2cnc3c(N)ncnc32)[C@H](O)[C@@H]1O` (some centres unmarked) [C3 H7 H H, SAM n-propyl ester], for which the “PRODUCT ABSORPTION intestine inside out” value in data set [1] (setting [4]) is reported as 0.045 nmoles/h/mg tissue. Also, the Fa at 2 h in data set [2] was determined as 61%.
On to `CCCCOC(=O)[C@@H](N)CC[S+](C)C[C@H]1O[C@@H](n2cnc3c(N)ncnc32)[C@H](O)[C@@H]1O` (some centres unmarked) [C4 H9, SAM n-butyl ester], for which the “PRODUCT ABSORPTION intestine inside out” value in data set [1] (setting [4]) amounted to 0.037 nmoles/h/mg tissue. In the data set “physchem” (pH 2), this molecule registered a degraded at 0.25 h of 2%, a degraded at 0.5 h of 4%, a degraded at 1 h of 8% and a degraded at 4 h of 30%. In the data set “physchem” (pH 3), this molecule registered a degraded at 0.25 h of 3%, a degraded at 0.5 h of 6%, a degraded at 1 h of 12% and a degraded at 4 h of 52%. In “physchem” (pH 4), the degraded at 0.25 h turned out to be 4%, the degraded at 0.5 h was determined as 9%, the degraded at 1 h was determined as 17% and the degraded at 4 h worked out at 75%. Also, in data set [2], the Fa at 2 h amounted to 65%.
For the molecule `CCCCCOC(=O)[C@@H](N)CC[S+](C)C[C@H]1O[C@@H](n2cnc3c(N)ncnc32)[C@H](O)[C@@H]1O` (some centres unmarked) [C5 H11 H H, SAM n-pentyl ester], the “PRODUCT ABSORPTION intestine inside out” value in data set [1] (setting [4]) is on record as 0.025 nmoles/h/mg tissue. Besides, in data set [2], the Fa at 2 h worked out at 68%.
In the same order, the values of `CCCCCCOC(=O)[C@@H](N)CC[S+](C)C[C@H]1O[C@@H](n2cnc3c(N)ncnc32)[C@H](O)[C@@H]1O` (some centres unmarked) [C6 H13 H H, SAM n-hexyl ester] are 0.023 nmoles/h/mg tissue and 67%.
Turning to `COC(=O)[C@@H](N)CC[S+](C)C[C@H]1O[C@@H](n2cnc3c(N)ncnc32)[C@H](O)[C@@H]1O` (some centres unmarked) [CH3, SAM methyl ester], the “PRODUCT ABSORPTION intestine inside out” value in data set [1] (setting [4]) came to 0.078 nmoles/h/mg tissue. In “physchem” (pH 2), this molecule registered a degraded at 0.25 h of 5%, a degraded at 0.5 h of 10%, a degraded at 1 h of 21% and a degraded at 4 h of 75%. Besides, in the data set “physchem” (pH 3), the degraded at 0.25 h is 6%, the degraded at 0.5 h is 13%, the degraded at 1 h stood at 25% and the degraded at 4 h amounted to 100%. Further, in “physchem” (pH 4), the degraded at 0.25 h worked out at 8%, the degraded at 0.5 h worked out at 18%, the degraded at 1 h was found to be 40% and the degraded at 4 h is 100%. Further, the Fa at 2 h in data set [2] came to 55%.
As to `CCCCC(=O)N[C@@H](CC[S+](C)C[C@H]1O[C@@H](n2cnc3c(N)ncnc32)[C@H](OC(=O)CCCC)[C@@H]1OC(=O)CCCC)C(=O)[O-]` (some centres unmarked) [H COC4 H9 COC4 H9], the “PRODUCT ABSORPTION intestine inside out” value in data set [1] (setting [4]) is given as 0.031 nmoles/h/mg tissue. Besides, the Fa at 2 h in data set [2] amounted to 87%.
Take `CCCCC(=O)N[C@@H](CC[S+](C)C[C@H]1O[C@@H](n2cnc3c(N)ncnc32)[C@H](O)[C@@H]1O)C(=O)[O-]` (some centres unmarked) [H COC4 H9 H]: the “PRODUCT ABSORPTION intestine inside out” value in data set [1] (setting [4]) worked out at 0.028 nmoles/h/mg tissue. Further, the Fa at 2 h in data set [2] came to 18%.
On to `C[S+](CC[C@H](NC(=O)c1ccccc1)C(=O)[O-])C[C@H]1O[C@@H](n2cnc3c(N)ncnc32)[C@H](O)[C@@H]1O` (some centres unmarked) [H COC6 H5 H, SAM benzoyl], for which, in data set [1] (setting [4]), the “PRODUCT ABSORPTION intestine inside out” value is on record as 0.017 nmoles/h/mg tissue. For the same molecule, the Fa at 2 h in data set [2] was determined as 12%.
With `CC(=O)N[C@@H](CC[S+](C)C[C@H]1O[C@@H](n2cnc3c(N)ncnc32)[C@H](OC(C)=O)[C@@H]1OC(C)=O)C(=O)[O-]` (some centres unmarked) [H COCH3 COCH3, SAM triacetyl], the “PRODUCT ABSORPTION intestine inside out” value in data set [1] (setting [4]) is 0.047 nmoles/h/mg tissue. Also, the Fa at 2 h in data set [2] stood at 65%.
In the same order, the values of `CC(=O)N[C@@H](CC[S+](C)C[C@H]1O[C@@H](n2cnc3c(N)ncnc32)[C@H](O)[C@@H]1O)C(=O)[O-]` (some centres unmarked) [H COCH3 H, SAM monoacetyl] are 0.046 nmoles/h/mg tissue and 10%.
In the same order, the values of `C[S+](CC[C@H](NC(=O)CCCC(=O)O)C(=O)[O-])C[C@H]1O[C@@H](n2cnc3c(N)ncnc32)[C@H](O)[C@@H]1O` (some centres unmarked) [H Glutaryl H, SAM glutaryl] are 0.018 nmoles/h/mg tissue and 23%.
In the same order, the values of `CC(=O)O[C@@H]1[C@H](OC(C)=O)[C@@H](C[S+](C)CC[C@H](NC(=O)CCC(=O)O)C(=O)[O-])O[C@H]1n1cnc2c(N)ncnc21` (some centres unmarked) [H Succinyl COCH3, SAM succinyl-diacetyl] are 0.035 nmoles/h/mg tissue and 91%.
As for `C[S+](CC[C@H](NC(=O)CCC(=O)O)C(=O)[O-])C[C@H]1O[C@@H](n2cnc3c(N)ncnc32)[C@H](O)[C@@H]1O` (some centres unmarked) [H Succinyl H, SAM succinyl], the “PRODUCT ABSORPTION intestine inside out” value in data set [1] (setting [4]) is 0.016 nmoles/h/mg tissue. Further, the Fa at 2 h in data set [2] was 25%.
Consider `Cc1ccc(S(=O)(=O)N[C@@H](CC[S+](C)C[C@H]2O[C@@H](n3cnc4c(N)ncnc43)[C@H](O)[C@@H]2O)C(=O)[O-])cc1` (some centres unmarked) [H p.tol. sulphon. H, SAM p-toluenesulphonyl], for which the “PRODUCT ABSORPTION intestine inside out” value in data set [1] (setting [4]) is 0.021 nmoles/h/mg tissue. Moreover, the Fa at 2 h in data set [2] was 13%.
`C[S+](CC[C@H](N)C(=O)[O-])C[C@H]1O[C@@H](n2cnc3c(N)ncnc32)[C@H](O)[C@@H]1O` (some centres unmarked) [H, S-adenosylmethionine]: the “PRODUCT ABSORPTION intestine inside out” value in data set [1] was 0.009 nmoles/h/mg tissue. In “physchem” (pH 2), this molecule had a degraded at 0.25 h of 80%, a degraded at 0.5 h of 100%, a degraded at 1 h of 100% and a degraded at 4 h of 100%. In “physchem” (pH 3), the degraded at 0.25 h was 90%, the degraded at 0.5 h came to 100%, the degraded at 1 h came to 100% and the degraded at 4 h turned out to be 100%. In addition, in the data set “physchem” (pH 4), the degraded at 0.25 h was found to be 100%, the degraded at 0.5 h was 100%, the degraded at 1 h stood at 100% and the degraded at 4 h turned out to be 100%.
Take `CC(=O)N[C@@H](CC[S+](C)C[C@H]1O[C@@H](n2cnc3c(N)ncnc32)[C@H](O)[C@@H]1O)C(=O)[O-]` (some centres unmarked) [SAM monoacetyl. 2 H2 SO4, SAM monoacetyl]: the degraded at 1440 h in data set [3] (setting [5]) is 0%. Moreover, in data set [3] (setting [6]), the degraded at 2880 h was 1.4%. For the same molecule, in data set [3] (setting [7]), the degraded at 4320 h was 3%. Moreover, in data set [3] (setting [8]), the degraded at 5760 h amounted to 4.6%. Moreover, in data set [3] (setting [9]), the degraded at 8640 h came out at 5.5%.
In the same order, the values of `CC(=O)N[C@@H](CC[S+](C)C[C@H]1O[C@@H](n2cnc3c(N)ncnc32)[C@H](OC(C)=O)[C@@H]1OC(C)=O)C(=O)[O-]` (some centres unmarked) [SAM triacetyl. 2 H2 SO4, SAM triacetyl] are 1%, 1.9%, 4.1%, 5.9% and 8%.
For the molecule `C[S+](CC[C@H](N)C(=O)[O-])C[C@H]1O[C@@H](n2cnc3c(N)ncnc32)[C@H](O)[C@@H]1O` (some centres unmarked) [SAM. H2 SO4, S-adenosylmethionine], in data set [3], the degraded at 1440 h was determined as 80%, the degraded at 2880 h worked out at 100%, the degraded at 4320 h stood at 100% and the degraded at 5760 h came to 100%. In data set [3], this molecule gave a degraded at 8640 h of 100%.
Turning to SAM n-dodecyl [H Dodecyl H], the “PRODUCT ABSORPTION intestine inside out” value in data set [1] (setting [4]) was found to be 0.019 nmoles/h/mg tissue. In addition, the “PRODUCT ABSORPTION in sacs” value in the data set on intestinal sacs is reported as 65 % of dose.
As to SAM n-octyl [H Octyl H], in data set [1] (setting [4]), the “PRODUCT ABSORPTION intestine inside out” value was found to be 0.023 nmoles/h/mg tissue. For the same molecule, in the data set on intestinal sacs, the “PRODUCT ABSORPTION in sacs” value is reported as 62 % of dose.
